Source: US11806342B2, “Diiodohydroxyquinoline for the treatment of clostridium difficile infection” (Purdue Research Foundation, priority 2019, dated 2023)
≈ marks a conversion by molar mass, not a printed value.

What was measured:
Format in all cases: cell-based, Clostridium difficile
C. difficile ATCC 43598 = assay: MIC and MBC, broth microdilution; conditions: Clostridioides difficile, ATCC43598, C. difficile ATCC 43598
Method: (§1) MIC50 and MIC90 are the minimum concentration of each agent that inhibited growth of 50% and 90% of the tested isolates, respectively. The minimum bactericidal concentration (MBC) of these drugs was tested by plating 5 μL from wells with no growth onto BHIS agar plates. The MBC was categorized as the lowest concentration that reduced bacterial growth by 99.9% MIC50 and MIC90 are the minimum concentration of each agent that inhibited the growth of 50% and 90% of the tested isolates, respectively. The minimum bactericidal concentration (MBC) of these drugs was tested by plating 5 μL from wells with no growth onto BHIS agar plates. The MBC was categorized as the lowest concentration that reduced bacterial growth by 99.9% [29-31].

C. difficile ATCC 700057 = assay: MIC and MBC, broth microdilution; conditions: Clostridioides difficile, ATCC700057, C. difficile ATCC 700057
Method: as §1

C. difficile I1 = assay: MIC and MBC, broth microdilution; conditions: Clostridioides difficile, C. difficile I1
Method: as §1

C. difficile NR-49284 = assay: MIC and MBC, broth microdilution; conditions: Clostridioides difficile, NR49284, C. difficile NR-49284
Method: as §1

C. difficile NR-49286 = assay: MIC and MBC, broth microdilution; conditions: Clostridioides difficile, NR49286, C. difficile NR-49286
Method: as §1

C. difficile P1 = assay: MIC and MBC, broth microdilution; conditions: Clostridioides difficile, C. difficile P1
Method: as §1

C. difficile P24 = assay: MIC and MBC, broth microdilution; conditions: Clostridioides difficile, C. difficile P24; for MBC: read-out: MBC
Method: as §1

C. difficile P7 = assay: MIC and MBC, broth microdilution; conditions: Clostridioides difficile, C. difficile P7
Method: as §1

C. difficile P8 = assay: MIC and MBC, broth microdilution; conditions: Clostridioides difficile, C. difficile P8
Method: as §1

[1] = tested on: 38 tested C. difficile strains; assay: MIC and MBC over the panel of clinical isolates (MIC50, MIC90, range); conditions: for MIC90: concentration inhibiting growth of 90% of the tested isolates, read-out: MIC90
Method: as §1

C. difficile ATCC 43255 = assay: Spore inhibition assay; conditions: five days
Method: (§2) The spore inhibition assay was performed as described in previous reports to investigate the effect of diiodohydroxyquinoline on C. difficile spore formation. Briefly, […], the bacterial suspension was split into microcentrifuge tubes and drugs were added (in triplicates) at concentrations equal to ½×MIC or 1×MIC. Tubes were then, incubated anaerobically for five days at 37° C. Thereafter, an aliquot from each tube was diluted and plated on BHIS agar plates supplemented with 0.1% taurocholic acid, to count the total bacterial counts (vegetative bacteria+spores). The remaining solution was centrifuged, and the pellet was suspended in PBS, stored overnight at 4° C., and subsequently shock-heated at 70° C. for 30 minutes to kill the vegetative cells. The resulting solution was serially diluted and plated to determine the heat-resistant spore counts. Spore inhibition assay was performed as described in previous reports to investigate the effect of DIHQ on C. difficile spore formation. Briefly, log-phase cultures of C. difficile strains (ATCC BAA-1870, ATCC 43255, and NR-49277) were diluted in BHIS to an initial density of ˜10^6 CFU/mL. Afterwards, the bacterial suspension was split in small tubes and the drugs were added (in triplicates) at concentrations equal to ½×MIC or 1×MIC. Tubes were then incubated anaerobically for 5 days at 37° C. After that, an aliquot from each tube was diluted and plated on BHIS agar plates supplemented with 0.1% taurocholic acid, to count the total bacterial count (vegetative bacteria+spores). The remaining solution was centrifuged, and the pellet was suspended in PBS and stored overnight at 4° C. then shock heated at 70° C. for 30 minutes to kill the vegetative cells. The resulting solution was serially diluted and plated to determine the heat-resistant spore counts.

[2] = tested on: C. difficile ATCC BAA-1870; assay: Spore inhibition assay; conditions: five days
Method: as §2

C. difficile NR-49277 = assay: Spore inhibition assay; conditions: five days
Method: as §2

C. difficile ATCC 1801 = assay: Checkerboard assay, DIHQ with metronidazole or vancomycin
Method: (§3) Interactions between diiodohydroxyquinoline and the anticlostridial drugs (metronidazole and vancomycin) against Clostridium difficile clinical isolates. […] The fractional inhibitory concentration index (ΣFIC) was calculated for each interaction. Interactions where the ΣFIC index was ≤0.5 were categorized as synergistic (SYN).

C. difficile ATCC 9689 = assay: as above
Method: as §3

C. difficile I6 = assay: as above
Method: as §3

C. difficile P11 = assay: as above
Method: as §3

C. difficile P19 = assay: as above
Method: as §3

C. difficile P30 = assay: as above
Method: as §3

`CCc1c(Cl)c(O)c(Cl)c(O)c1C(=O)O[C@H]1[C@H](O)[C@H](OC)[C@H](OC/C2=C\C=C\C[C@H](O)/C(C)=C/[C@H](CC)[C@@H](O[C@@H]3OC(C)(C)[C@@H](OC(=O)C(C)C)[C@H](O)[C@@H]3O)/C(C)=C/C(C)=C/C[C@@H]([C@@H](C)O)OC2=O)O[C@@H]1C` [Fidaxomicin, fidaxomicin] gave an MBC (C. difficile ATCC 43598; read-out: MBC) of 0.015 µg/mL (≈ 0.0142 µM), an MIC (C. difficile ATCC 43598; read-out: MIC) of 0.015 µg/mL (≈ 0.0142 µM) and an MBC (C. difficile ATCC 700057; read-out: MBC) of 0.007 µg/mL (≈ 0.00662 µM). It also gave an MIC (C. difficile ATCC 700057; read-out: MIC) of 0.007 µg/mL (≈ 0.00662 µM), an MBC (C. difficile I1; read-out: MBC) of 0.007 µg/mL (≈ 0.00662 µM) and an MIC (C. difficile I1; read-out: MIC) of 0.007 µg/mL (≈ 0.00662 µM). The MBC (C. difficile NR-49284; read-out: MBC) was 0.015 µg/mL (≈ 0.0142 µM), the MIC (C. difficile NR-49284; read-out: MIC) was 0.015 µg/mL (≈ 0.0142 µM) and the MBC (C. difficile NR-49286; read-out: MBC) was 0.015 µg/mL (≈ 0.0142 µM). For the same compound, the MIC (C. difficile NR-49286; read-out: MIC) was 0.007 µg/mL (≈ 0.00662 µM), the MBC (C. difficile P1; read-out: MBC) was 0.007 µg/mL (≈ 0.00662 µM) and the MIC (C. difficile P1; read-out: MIC) was 0.003 µg/mL (≈ 0.00284 µM). It also gave an MBC (C. difficile P24) of 0.03 µg/mL (≈ 0.0284 µM), an MIC (C. difficile P24; read-out: MIC) of 0.015 µg/mL (≈ 0.0142 µM) and an MBC (C. difficile P7; read-out: MBC) of 0.06 µg/mL (≈ 0.0567 µM). The MIC (C. difficile P7; read-out: MIC) was 0.06 µg/mL (≈ 0.0567 µM), the MBC (C. difficile P8; read-out: MBC) was 0.015 µg/mL (≈ 0.0142 µM) and the MIC (C. difficile P8; read-out: MIC) was 0.015 µg/mL (≈ 0.0142 µM). The MIC50 ([1]; Clostridioides difficile, concentration inhibiting growth of 50% of the tested isolates, read-out: MIC50) was 0.015 µg/mL (≈ 0.0142 µM), the MIC90 ([1]; Clostridioides difficile) was 0.06 µg/mL (≈ 0.0567 µM) and the “reduction in spore count” value (C. difficile ATCC 43255; C. difficile ATCC 43255, 1×MIC) was roughly 1.8 log10. The “reduction in spore count” value (C. difficile ATCC 43255; C. difficile ATCC 43255, ½×MIC) was roughly 0.75 log10, the “reduction in spore count” value ([2]; C. difficile ATCC BAA-1870, 1×MIC) was roughly 1.8 log10 and the “reduction in spore count” value ([2]; C. difficile ATCC BAA-1870, ½×MIC) was roughly 1.02 log10. The “reduction in spore count” value (C. difficile NR-49277; C. difficile NR-49277, 1×MIC) was roughly 1.27 log10 and the “reduction in spore count” value (C. difficile NR-49277; C. difficile NR-49277, ½×MIC) was roughly 0.8 log10.
`Cc1ncc([N+](=O)[O-])n1CCO` [Metronidazole, metronidazole] gave an MBC (C. difficile P24) of 0.25 µg/mL (≈ 1.46 µM), an MIC90 ([1]; Clostridioides difficile) of 0.25 µg/mL (≈ 1.46 µM) and an MIC range ([1]; over the 38 tested C. difficile strains) of 0.06 to 0.5 µg/mL. The “MIC of metronidazole combined with DIHQ” value (C. difficile ATCC 1801; C. difficile ATCC 1801) was 0.03 µg/mL, the MIC (C. difficile ATCC 1801; Clostridioides difficile, ATCC1801, C. difficile ATCC 1801, Table 3, read-out: MIC alone) was 0.25 µg/mL and the “MIC of metronidazole combined with DIHQ” value (C. difficile ATCC 9689; C. difficile ATCC 9689) was 0.03 µg/mL. The MIC (C. difficile ATCC 9689; Clostridioides difficile, ATCC9689, C. difficile ATCC 9689, Table 3, read-out: MIC alone) was 0.25 µg/mL, the “MIC of metronidazole combined with DIHQ” value (C. difficile I6; C. difficile I6) was 0.03 µg/mL and the MIC (C. difficile I6; Clostridioides difficile, C. difficile I6, Table 3, read-out: MIC alone) was 0.25 µg/mL. The “MIC of metronidazole combined with DIHQ” value (C. difficile P11; C. difficile P11) was 0.03 µg/mL, the MIC (C. difficile P11; Clostridioides difficile, C. difficile P11, Table 3, read-out: MIC alone) was 0.25 µg/mL and the “MIC of metronidazole combined with DIHQ” value (C. difficile P19; C. difficile P19) was 0.06 µg/mL. For the same compound, the MIC (C. difficile P19; Clostridioides difficile, C. difficile P19, Table 3, read-out: MIC alone) was 0.5 µg/mL, the “MIC of metronidazole combined with DIHQ” value (C. difficile P30; C. difficile P30) was 0.06 µg/mL and the MIC (C. difficile P30; Clostridioides difficile, C. difficile P30, Table 3, read-out: MIC alone) was 0.5 µg/mL. For the same compound, the “reduction in spore count (in words)” value (C. difficile ATCC 43255; C. difficile ATCC 43255, ½×MIC or 1×MIC) was “almost no reduction”, the “reduction in spore count (in words)” value ([2]; C. difficile ATCC BAA-1870, ½×MIC or 1×MIC) was “almost no reduction” and the “reduction in spore count (in words)” value (C. difficile NR-49277; C. difficile NR-49277, ½×MIC or 1×MIC) was “almost no reduction”.
